Data: ChEMBL document CHEMBL3044564, “Synthesis and antihypertensive activity evaluation in spontaneously hypertensive rats of lacidipine analogues” (2012)

Experiments:
Rattus norvegicus [1] = assay: Antihypertensive activity in spontaneously hypertensive Rattus norvegicus (rat) assessed as reduced systolic blood pressure at 1 mg/kg intragastrically administered; format: functional, Artery; conditions: route intragastric
Rattus norvegicus [2] = assay: Antihypertensive activity in spontaneously hypertensive Rattus norvegicus (rat) assessed as reduced systolic blood pressure at 0.5 mg/kg intragastrically administered measured at 1 hr post compound treatment (reference value: 1 +/- 3 mmHg); format: functional, Artery; conditions: route intragastric
Rattus norvegicus [3] = assay: Antihypertensive activity in spontaneously hypertensive Rattus norvegicus (rat) assessed as reduced systolic blood pressure at 2 mg/kg intragastrically administered measured at 20 hr post compound treatment (reference value: -2 +/- 4 mmHg); format: functional, Artery; conditions: route intragastric
Rattus norvegicus [4] = assay: Antihypertensive activity in spontaneously hypertensive Rattus norvegicus (rat) assessed as reduced systolic blood pressure at 2 mg/kg intragastrically administered measured at 4 hr post compound treatment (reference value: -1 +/- 3 mmHg); format: functional, Artery; conditions: route intragastric
Rattus norvegicus [5] = assay: Antihypertensive activity in spontaneously hypertensive Rattus norvegicus (rat) assessed as reduced systolic blood pressure at 1 mg/kg intragastrically administered measured at 4 hr post compound treatment (reference value: -1 +/- 3 mmHg); format: functional, Artery; conditions: route intragastric
Rattus norvegicus [6] = assay: Antihypertensive activity in spontaneously hypertensive Rattus norvegicus (rat) assessed as reduced systolic blood pressure at 1 mg/kg intragastrically administered measured at 2 hr post compound treatment (reference value: -1 +/- 2 mmHg); format: functional, Artery; conditions: route intragastric
Rattus norvegicus [7] = assay: Antihypertensive activity in spontaneously hypertensive Rattus norvegicus (rat) assessed as reduced systolic blood pressure at 2 mg/kg intragastrically administered measured at 6 hr post compound treatment (reference value: -2 +/- 3 mmHg); format: functional, Artery; conditions: route intragastric
Rattus norvegicus [8] = assay: Antihypertensive activity in spontaneously hypertensive Rattus norvegicus (rat) assessed as reduced systolic blood pressure at 2 mg/kg intragastrically administered measured at 2 hr post compound treatment (reference value: -1 +/- 2 mmHg); format: functional, Artery; conditions: route intragastric
Rattus norvegicus [9] = assay: Antihypertensive activity in spontaneously hypertensive Rattus norvegicus (rat) assessed as reduced systolic blood pressure at 2 mg/kg intragastrically administered measured at 8 hr post compound treatment (reference value: -3 +/- 3 mmHg); format: functional, Artery; conditions: route intragastric
Rattus norvegicus [10] = assay: Antihypertensive activity in spontaneously hypertensive Rattus norvegicus (rat) assessed as reduced systolic blood pressure at 2 mg/kg intragastrically administered measured at 1 hr post compound treatment (reference value: 1 +/- 3 mmHg); format: functional, Artery; conditions: route intragastric
Rattus norvegicus [11] = assay: Antihypertensive activity in spontaneously hypertensive Rattus norvegicus (rat) assessed as reduction in systolic blood pressure compound intragastrically administered measured at 1 to 20 hr post compound treatment; format: functional, organism-based; conditions: Artery
Rattus norvegicus [12] = assay: Antihypertensive activity in spontaneously hypertensive Rattus norvegicus (rat) assessed as reduced systolic blood pressure at 1 mg/kg intragastrically administered measured at 6 hr post compound treatment (reference value: -2 +/- 3 mmHg); format: functional, Artery; conditions: route intragastric
Rattus norvegicus [13] = assay: Antihypertensive activity in spontaneously hypertensive Rattus norvegicus (rat) assessed as reduced systolic blood pressure at 1 mg/kg intragastrically administered measured at 1 hr post compound treatment (reference value: 1 +/- 3 mmHg); format: functional, Artery; conditions: route intragastric

For `CCOC(=O)C1=C(C)NC(C)=C(C(=O)OCC)C1c1ccccc1/C=C/C(=O)NCC(C)C`, the Activity (Rattus norvegicus [1]) was 15 mmHg.
Work on `CCOC(=O)C1=C(C)NC(C)=C(C(=O)OCC)C1c1ccccc1/C=C/C(=O)OC(C)(C)C` [LACIDIPINE] yielded an Activity (Rattus norvegicus [1]) of 50 mmHg.
Work on `CCOC(=O)C1=C(C)NC(C)=C(C(=O)OCC)C1c1ccccc1/C=C/C(=O)N(CC)CC` yielded an Activity (Rattus norvegicus [1]) of 33 mmHg.
In the case of `CCOC(=O)C1=C(C)NC(C)=C(C(=O)OCC)C1c1ccccc1/C=C/C(=O)N(C)C(C)(C)C`, the Activity (Rattus norvegicus [2]) is reported as 11 mmHg, the Activity (Rattus norvegicus [3]) is reported as 25 mmHg and the Activity (Rattus norvegicus [4]) is reported as 47 mmHg. For the same compound, the Activity (Rattus norvegicus [5]) was 20 mmHg, the Activity (Rattus norvegicus [6]) was 34 mmHg and the Activity (Rattus norvegicus [7]) was 45 mmHg. It also gave an Activity (Rattus norvegicus [8]) of 53 mmHg, an Activity (Rattus norvegicus [1]) of 46 mmHg and an Activity (Rattus norvegicus [9]) of 43 mmHg. For the same compound, the Activity (Rattus norvegicus [10]) was 44 mmHg, the Activity (Rattus norvegicus [11]) was “Dose-dependent effect” and the Activity (Rattus norvegicus [12]) was 3 mmHg. For the same compound, the Activity (Rattus norvegicus [13]) was 46 mmHg.
For `CCOC(=O)C1=C(C)NC(C)=C(C(=O)OCC)C1c1ccccc1/C=C/C(=O)NC(C)(C)C`, the Activity (Rattus norvegicus [1]) was 44 mmHg.
`CCCCN(C)C(=O)/C=C/c1ccccc1C1C(C(=O)OCC)=C(C)NC(C)=C1C(=O)OCC` showed an Activity (Rattus norvegicus [1]) of 27 mmHg.
With `CCOC(=O)C1=C(C)NC(C)=C(C(=O)OCC)C1c1ccccc1/C=C/C(=O)N1CCCCC1` the Activity (Rattus norvegicus [1]) was 22 mmHg.
